# Experimental data taken from patent publication US9409892B2, “4-hydroxy-isoquinoline compounds as HIF hydroxylase inhibitors” (FIBROGEN, INC., priority 2012, dated 2016).
# Several values for one entry are separate records, joined by “and”; a condition that tells them apart may be missing. Equal entries are not always repeated. Where two headings read alike, the source gives them in different places.
# Experiments:
# [1] = target: PHD1 (EGLN2) (Homo sapiens (Human), UniProt Q96KS0); test: HIF-PH assay (14CO2 capture), PHD1 enzyme inhibition; assay type: biochemical; conditions: Table 1; for PHD2/PHD1: ratio of the IC50 of the compound for each enzyme
# [2] = target: PHD2 (EGLN1) (Homo sapiens (Human), UniProt Q9GZT9); test: HIF-PH assay (14CO2 capture), PHD2 enzyme inhibition; assay type: biochemical; conditions: Table 1
# [3] = individual measurement, read-out: IC50 (μM) PHD1
# [4] = individual measurement, read-out: IC50 (μM) PHD2
# Chain of PHD1 (EGLN2) (Q96KS0 whole entry): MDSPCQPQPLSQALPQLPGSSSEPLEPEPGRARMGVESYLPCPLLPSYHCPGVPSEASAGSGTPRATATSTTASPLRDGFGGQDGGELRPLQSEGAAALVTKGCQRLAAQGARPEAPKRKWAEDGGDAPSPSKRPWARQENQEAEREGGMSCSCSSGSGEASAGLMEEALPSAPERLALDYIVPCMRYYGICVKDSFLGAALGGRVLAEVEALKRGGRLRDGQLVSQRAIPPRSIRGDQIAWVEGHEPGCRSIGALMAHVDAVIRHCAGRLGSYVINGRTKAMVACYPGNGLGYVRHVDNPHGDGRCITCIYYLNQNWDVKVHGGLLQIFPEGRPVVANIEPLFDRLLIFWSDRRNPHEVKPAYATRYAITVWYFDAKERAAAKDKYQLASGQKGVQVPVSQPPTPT
# Chain of PHD2 (EGLN1) (Q9GZT9 whole entry): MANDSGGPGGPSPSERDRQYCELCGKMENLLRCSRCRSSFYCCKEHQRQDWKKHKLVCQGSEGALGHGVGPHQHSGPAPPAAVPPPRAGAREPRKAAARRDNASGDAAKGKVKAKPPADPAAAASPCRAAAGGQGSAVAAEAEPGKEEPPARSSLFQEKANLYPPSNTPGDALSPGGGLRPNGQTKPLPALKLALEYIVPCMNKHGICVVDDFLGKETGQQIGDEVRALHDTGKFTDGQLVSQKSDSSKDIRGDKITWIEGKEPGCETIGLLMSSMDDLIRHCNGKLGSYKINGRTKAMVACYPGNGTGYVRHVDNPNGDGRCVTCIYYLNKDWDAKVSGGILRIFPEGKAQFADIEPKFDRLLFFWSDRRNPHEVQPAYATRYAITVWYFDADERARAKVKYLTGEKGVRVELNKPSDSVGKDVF
Structure (SMILES),"IC50 [1, 3]",PHD2/PHD1 [1],"IC50 [2, 4]","IC50 ([1]; average of multiple independent measurements, read-out: IC50 (μM) PHD1 avg.)",PHD2/PHD1 avg. ([1]; average of the ratios of multiple independent measurements),"IC50 ([2]; average of multiple independent measurements, read-out: IC50 (μM) PHD2 avg.)"
"CC(C)(CNC(=O)c1nc(C#N)c2cc(Oc3ccccc3)ccc2c1O)C(=O)O [Compound 77, 3-[(1-Cyano-4-hydroxy-7-phenoxy-isoquinoline-3-carbonyl)-amino]-2,2-dimethyl-propionic acid]",0.41 µM,22,9.12 µM,,,
"C[C@@H](CC(=O)O)NC(=O)c1nc(C#N)c2cc(Oc3ccccc3)ccc2c1O [Compound 78, 3-(S)-[(1-Cyano-4-hydroxy-7-phenoxy-isoquinoline-3-carbonyl)-amino]-butyric acid]",3.27 µM,30,96.8 µM,,,
"N#Cc1nc(C(=O)NC[C@H](O)C(=O)O)c(O)c2ccc(Oc3ccccc3)cc12 [Compound 79, 3-[(1-Cyano-4-hydroxy-7-phenoxy-isoquinoline-3-carbonyl)-amino]-2-(S)-hydroxy-propionic acid]",0.11 µM,15,1.69 µM,,,
"N#Cc1nc(C(=O)NCCCC(=O)O)c(O)c2ccc(Oc3ccccc3)cc12 [Compound 80, 4-[(1-Cyano-4-hydroxy-7-phenoxy-isoquinoline-3-carbonyl)-amino]-butyric acid]",0.14 µM,5,0.71 µM,,,
"N#Cc1nc(C(=O)NCCCCC(=O)O)c(O)c2ccc(Oc3ccccc3)cc12 [Compound 81, 5-[(1-Cyano-4-hydroxy-7-phenoxy-isoquinoline-3-carbonyl)-amino]-pentanoic acid]",0.42 µM,12,4.95 µM,,,
"N#Cc1nc(C(=O)NCC[C@H](O)C(=O)O)c(O)c2ccc(Oc3ccccc3)cc12 [Compound 83, 4-[(1-Cyano-4-hydroxy-7-phenoxy-isoquinoline-3-carbonyl)-amino]-2-(S)-hydroxy-butyric acid]",0.24 µM,12,2.75 µM,,,
"CC(C)(CCNC(=O)c1nc(C#N)c2cc(Oc3ccccc3)ccc2c1O)C(=O)O [Compound 84, 4-[(1-Cyano-4-hydroxy-7-phenoxy-isoquinoline-3-carbonyl)-amino]-2,2-dimethyl-butyric acid]",0.34 µM,6,2.11 µM,,,
"CC(C)(C)OC(=O)N[C@@H](CNC(=O)c1nc(C#N)c2cc(Oc3ccccc3)ccc2c1O)C(=O)O [Compound 85, 2-(S)-tert-Butoxycarbonylamino-3-[(1-cyano-4-hydroxy-7-phenoxy-isoquinoline-3-carbonyl)-amino]-propionic acid]",19.1 µM,6,112 µM,,,
"N#Cc1nc(C(=O)NC[C@H](N)C(=O)O)c(O)c2ccc(Oc3ccccc3)cc12 [Compound 86, 2-(S)-Amino-3-[(1-cyano-4-hydroxy-7-phenoxy-isoquinoline-3-carbonyl)-amino]-propionic acid]",2.51 µM,21,51.9 µM,,,
"N#Cc1nc(C(=O)NC[C@H](NC(=O)OCc2ccccc2)C(=O)O)c(O)c2ccc(Oc3ccccc3)cc12 [Compound 87, 2-(S)-Benzyloxycarbonylamino-3-[(1-cyano-4-hydroxy-7-phenoxy-isoquinoline-3-carbonyl)-amino]-propionic acid]",3.56 µM,8,27.5 µM,,,
"N#Cc1nc(C(=O)N[C@H]2CC[C@H](C(=O)O)CC2)c(O)c2ccc(Oc3ccccc3)cc12 [Compound 88, trans-4-[(1-Cyano-4-hydroxy-7-phenoxy-isoquinoline-3-carbonyl)-amino]-cyclohexanecarboxylic acid]",14.1 µM,7,93.3 µM,,,
"CC(C)(CNC(=O)c1nc(C#N)c2cc(Oc3ccccc3)ccc2c1O)CC(=O)O [Compound 89, 4-[(1-Cyano-4-hydroxy-7-phenoxy-isoquinoline-3-carbonyl)-amino]-3,3-dimethyl-butyric acid]",2.86 µM,5,13.6 µM,,,
"N#Cc1nc(C(=O)NC2(CC(=O)O)CCCCC2)c(O)c2ccc(Oc3ccccc3)cc12 [Compound 90, {1-[(1-Cyano-4-hydroxy-7-phenoxy-isoquinoline-3-carbonyl)-amino]-cyclohexyl}-acetic acid]",7.32 µM,8,56.3 µM,,,
"N#Cc1nc(C(=O)NC(CC(=O)O)c2ccccc2)c(O)c2ccc(Oc3ccccc3)cc12 (stereo not drawn) [Compound 91, 3-[(1-Cyano-4-hydroxy-7-phenoxy-isoquinoline-3-carbonyl)-amino]-3-phenyl-propionic acid]",1.91 µM,6,11.3 µM,,,
"C[C@H](CNC(=O)c1nc(C#N)c2cc(Oc3ccccc3)ccc2c1O)C(=O)O [Compound 92, 3-[(1-Cyano-4-hydroxy-7-phenoxy-isoquinoline-3-carbonyl)-amino]-2-(R)-methyl-propionic acid]",0.28 µM,14,3.88 µM,,,
"C[C@@H](CNC(=O)c1nc(C#N)c2cc(Oc3ccccc3)ccc2c1O)C(=O)O [Compound 93, 3-[(1-Cyano-4-hydroxy-7-phenoxy-isoquinoline-3-carbonyl)-amino]-2-(S)-methyl-propionic acid]",0.16 µM,15,2.4 µM,,,
"CO[C@@H](CCNC(=O)c1nc(C#N)c2cc(Oc3ccccc3)ccc2c1O)C(=O)O [Compound 94, 4-[(1-Cyano-4-hydroxy-7-phenoxy-isoquinoline-3-carbonyl)-amino]-2-(S)-methoxy-butyric acid]",0.31 µM,7,2.18 µM,,,
"CC(C)(CCCNC(=O)c1nc(C#N)c2cc(Oc3ccccc3)ccc2c1O)C(=O)O [Compound 95, 5-[(1-Cyano-4-hydroxy-7-phenoxy-isoquinoline-3-carbonyl)-amino]-2,2-dimethyl-pentanoic acid]",0.74 µM,5,3.5 µM,,,
"CC(C)(C)OC(=O)N1CCC(CC(=O)O)(NC(=O)c2nc(C#N)c3cc(Oc4ccccc4)ccc3c2O)CC1 [Compound 96, 4-Carboxymethyl-4-[(1-cyano-4-hydroxy-7-phenoxy-isoquinoline-3-carbonyl)-amino]-piperidine-1-carboxylic acid tert-butyl ester]",11.3 µM,14,158 µM,,,
"N#Cc1nc(C(=O)NCCC(=O)O)c(O)c2ccc(Oc3ccc(F)cc3Cl)cc12 [Compound 97, 3-{[7-(2-Chloro-4-fluoro-phenoxy)-1-cyano-4-hydroxy-isoquinoline-3-carbonyl]-amino}-propionic acid]",1.3 µM,6,7.43 µM,,,
"N#Cc1nc(C(=O)NCCCCC(=O)O)c(O)c2ccc(Oc3ccc(F)cc3Cl)cc12 [Compound 98, 5-{[7-(2-Chloro-4-fluoro-phenoxy)-1-cyano-4-hydroxy-isoquinoline-3-carbonyl]-amino}-pentanoic acid]",0.27 µM,14,3.73 µM,,,
"CC(C)(CNC(=O)c1nc(C#N)c2cc(Oc3ccc(F)cc3Cl)ccc2c1O)C(=O)O [Compound 99, 3-{[7-(2-Chloro-4-fluoro-phenoxy)-1-cyano-4-hydroxy-isoquinoline-3-carbonyl]-amino}-2,2-dimethyl-propionic acid]",0.29 µM,19,5.55 µM,,,
"O=C(O)CCCCNC(=O)c1ncc2cc(Oc3c(F)cccc3F)ccc2c1O [Compound 100, 5-{[7-(2,6-Difluoro-phenoxy)-4-hydroxy-isoquinoline-3-carbonyl]-amino}-pentanoic acid]",23.1 µM,9,200 µM,,,
"CC(C)(CNC(=O)c1nc(C#N)c2cc(Oc3ccc(F)cc3)ccc2c1O)C(=O)O [Compound 101, 3{-[1-Cyano-7-(4-fluoro-phenoxy)-4-hydroxy-isoquinoline-3-carbonyl]-amino}-2,2-dimethyl-propionic acid]",0.41 µM,11,4.65 µM,,,
"CC(C)(CC(=O)O)NC(=O)c1nc(C#N)c2cc(Oc3ccc(F)cc3)ccc2c1O [Compound 102, 3{-[1-Cyano-7-(4-fluoro-phenoxy)-4-hydroxy-isoquinoline-3-carbonyl]-amino}-3-methyl-butyric acid]",0.53 µM,16,8.5 µM,,,
"COc1ccc(Oc2ccc3c(O)c(C(=O)NC[C@H](O)C(=O)O)ncc3c2)cc1 [Compound 103, 2-(S)-Hydroxy-3-{[4-hydroxy-7-(4-methoxy-phenoxy)-isoquinoline-3-carbonyl]-amino}-propionic acid]",0.79 µM,6,4.78 µM,,,
"COc1ccc(Oc2ccc3c(O)c(C(=O)NCC(C)(C)C(=O)O)ncc3c2)cc1 [Compound 104, 3-{[4-Hydroxy-7-(4-methoxy-phenoxy)-isoquinoline-3-carbonyl]-amino}-2,2-dimethyl-propionic acid]",3.3 µM,6,19.5 µM,,,
"COc1ccc(Oc2ccc3c(O)c(C(=O)NCCCCC(=O)O)ncc3c2)cc1 [Compound 105, 5-{[4-Hydroxy-7-(4-methoxy-phenoxy)-isoquinoline-3-carbonyl]-amino}-pentanoic acid]",2.3 µM,6,13.4 µM,,,
"N#Cc1nc(C(=O)NC2(CC(=O)O)CCC2)c(O)c2ccc(Oc3ccccc3)cc12 [Compound 106, {1-[(1-Cyano-4-hydroxy-7-phenoxy-isoquinoline-3-carbonyl)-amino]-cyclobutyl}-acetic acid]",7.79 µM,10,74.5 µM,,,
"N#Cc1nc(C(=O)N[C@H](CCc2ccccc2)CC(=O)O)c(O)c2ccc(Oc3ccccc3)cc12 [Compound 107, 3-(R)-[(1-Cyano-4-hydroxy-7-phenoxy-isoquinoline-3-carbonyl)-amino]-5-phenyl-pentanoic acid]",2.46 µM and 2.28 µM,4 and 6,9.28 µM and 14.4 µM,2.37 µM,5 avg.,11.8 µM
